# Test results taken from patent US20230157952A1, “METHOD FOR IMPROVING THE STABILITY OF A PHARMACEUTICAL COMPOSITION COMPRISING A HIGH PENETRATION DRUG, AND THE PHARMACEUTICAL COMPOSITION OBTAINED THEREFROM” (Techfields Inc., priority 2020, published 2023).
# Assay: Effect of temperature (and pH) on the stability of the solution (purity)
# Type: physicochemical
smiles,measurement,setting,value
CCN(CC)CCOC(=O)Cc1ccccc1Oc1ccc(Cl)cc1Cl.Cl,Purity (%) at day 21 (60° C.),"pH 1.0, 7% solution in water",0%
same,Purity(%) at day 0,"pH 1.0, 7% solution in water",97.9 ± 0.3%
same,Purity(%) at day 21 (5° C.),"pH 1.0, 7% solution in water",91.3 ± 0.3%
same,Purity(%) at day 21 (25° C.),"pH 1.0, 7% solution in water",67.3 ± 0.3%
same,Purity(%) at day 21 (40° C.),"pH 1.0, 7% solution in water",15.1 ± 0.3%
same,Purity (%) at day 21 (60° C.),"pH 2.0, 7% solution in water",0%
same,Purity(%) at day 0,"pH 2.0, 7% solution in water",98.0 ± 0.2%
same,Purity(%) at day 21 (5° C.),"pH 2.0, 7% solution in water",95.1 ± 0.3%
same,Purity(%) at day 21 (25° C.),"pH 2.0, 7% solution in water",82.1 ± 0.3%
same,Purity(%) at day 21 (40° C.),"pH 2.0, 7% solution in water",27.0 ± 0.3%
same,Purity (%) at day 21 (60° C.),"pH 3.0, 7% solution in water",0%
same,Purity(%) at day 0,"pH 3.0, 7% solution in water",98.3 ± 0.2%
same,Purity(%) at day 21 (5° C.),"pH 3.0, 7% solution in water",97.0 ± 0.2%
same,Purity(%) at day 21 (25° C.),"pH 3.0, 7% solution in water",93.5 ± 0.2%
same,Purity(%) at day 21 (40° C.),"pH 3.0, 7% solution in water",48.3 ± 0.3%
same,Purity (%) at day 21 (60° C.),"pH 3.7, 7% solution in water",13.3 ± 0.5%
same,Purity(%) at day 0,"pH 3.7, 7% solution in water",98.4 ± 0.1%
same,Purity(%) at day 21 (5° C.),"pH 3.7, 7% solution in water",97.6 ± 0.2%
same,Purity(%) at day 21 (25° C.),"pH 3.7, 7% solution in water",96.9 ± 0.3%
same,Purity(%) at day 21 (40° C.),"pH 3.7, 7% solution in water",57.2 ± 0.2%
same,Purity (%) at day 21 (60° C.),"pH 4.0, 7% solution in water",18.2 ± 0.3%
same,Purity(%) at day 0,"pH 4.0, 7% solution in water",98.5 ± 0.1%
same,Purity(%) at day 21 (5° C.),"pH 4.0, 7% solution in water",98.0 ± 0.1%
same,Purity(%) at day 21 (25° C.),"pH 4.0, 7% solution in water",97.0 ± 0.2%
same,Purity(%) at day 21 (40° C.),"pH 4.0, 7% solution in water",68.1 ± 0.3%
same,Purity (%) at day 21 (60° C.),"pH 4.3, 7% solution in water",17.2 ± 0.2%
same,Purity(%) at day 0,"pH 4.3, 7% solution in water",98.5 ± 0.2%
same,Purity(%) at day 21 (5° C.),"pH 4.3, 7% solution in water",98.0 ± 0.1%
same,Purity(%) at day 21 (25° C.),"pH 4.3, 7% solution in water",97.0 ± 0.3%
same,Purity(%) at day 21 (40° C.),"pH 4.3, 7% solution in water",68.1 ± 0.3%
same,Purity (%) at day 21 (60° C.),"pH 4.6, 7% solution in water",14.3 ± 0.3%
same,Purity(%) at day 0,"pH 4.6, 7% solution in water",98.6 ± 0.1%
same,Purity(%) at day 21 (5° C.),"pH 4.6, 7% solution in water",98.1 ± 0.2%
same,Purity(%) at day 21 (25° C.),"pH 4.6, 7% solution in water",96.1 ± 0.2%
same,Purity(%) at day 21 (40° C.),"pH 4.6, 7% solution in water",54.5 ± 0.2%
same,Purity (%) at day 21 (60° C.),"pH 5.0, 7% solution in water",1.2 ± 0.2%
same,Purity(%) at day 0,"pH 5.0, 7% solution in water",98.4 ± 0.2%
same,Purity(%) at day 21 (5° C.),"pH 5.0, 7% solution in water",96.9 ± 0.2%
same,Purity(%) at day 21 (25° C.),"pH 5.0, 7% solution in water",93.1 ± 0.3%
same,Purity(%) at day 21 (40° C.),"pH 5.0, 7% solution in water",40.8 ± 0.3%
same,Purity (%) at day 21 (60° C.),"pH 6.0, 7% solution in water",0%
same,Purity(%) at day 0,"pH 6.0, 7% solution in water",98.2 ± 0.2%
same,Purity(%) at day 21 (5° C.),"pH 6.0, 7% solution in water",95.0 ± 0.2%
same,Purity(%) at day 21 (25° C.),"pH 6.0, 7% solution in water",86.7 ± 0.2%
same,Purity(%) at day 21 (40° C.),"pH 6.0, 7% solution in water",27.8 ± 0.2%
same,Purity (%) at day 21 (60° C.),"pH 7.0, 7% solution in water",0%
same,Purity(%) at day 0,"pH 7.0, 7% solution in water",98.0 ± 0.3%
same,Purity(%) at day 21 (5° C.),"pH 7.0, 7% solution in water",90.0 ± 0.3%
same,Purity(%) at day 21 (25° C.),"pH 7.0, 7% solution in water",59.3 ± 0.3%
same,Purity(%) at day 21 (40° C.),"pH 7.0, 7% solution in water",11.0 ± 0.4%
same,Purity (%) at day 21 (60° C.),"pH 8.0, 7% solution in water",0%
same,Purity(%) at day 0,"pH 8.0, 7% solution in water",97.8 ± 0.3%
same,Purity(%) at day 21 (5° C.),"pH 8.0, 7% solution in water",78.3 ± 0.3%
same,Purity(%) at day 21 (25° C.),"pH 8.0, 7% solution in water",47.1 ± 0.3%
same,Purity(%) at day 21 (40° C.),"pH 8.0, 7% solution in water",0%
